Measurements reported in ChEMBL document CHEMBL3351424, “Reversible ketomethylene-based inhibitors of human neutrophil proteinase 3” (J Med Chem, 2014).
Activity calls are given as the source filed them. The calls are words filed in the database; no cut-off is given here. Starred links: 1 amine or outer side, 2 acyl side, 3 side chain; linkers in the order of their positions; H or OH if unused. Non-standard residues stand in square brackets, D forms with d. Residues, ends and D or L forms follow the SMILES beside them. *: point of attachment. EDDnp = O=[N+]([O-])c1ccc(NCCN*)c([N+](=O)[O-])c1; X1 = CCC[C@H](N[*:1])C(=O)C[C@@H](C)C(=O)[*:2]; 2Abz = Nc1ccccc1C(=O)O

Columns and labels:
[1] = biological target: T1, Neutrophil elastase (Homo sapiens) (UniProt P08246); experiment: Inhibition of human NE using MeOSuc-AAPV-AMC as substrate after 30 mins by fluorescence assay
T1 sequence (whole entry): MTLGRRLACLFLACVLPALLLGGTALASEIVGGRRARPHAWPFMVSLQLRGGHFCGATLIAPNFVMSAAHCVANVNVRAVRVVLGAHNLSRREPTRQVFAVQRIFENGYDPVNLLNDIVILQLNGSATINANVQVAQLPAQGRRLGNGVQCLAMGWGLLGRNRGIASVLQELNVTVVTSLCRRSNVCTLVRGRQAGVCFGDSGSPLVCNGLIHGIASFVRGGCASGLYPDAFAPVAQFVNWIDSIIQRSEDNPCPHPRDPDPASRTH

[2] = biological target: T2, Myeloblastin (Homo sapiens, UniProt P24158); experiment: Inhibition of human PR3 using D-DY-FRET as substrate after 30 mins by HPLC analysis
T2 sequence (P24158 whole entry): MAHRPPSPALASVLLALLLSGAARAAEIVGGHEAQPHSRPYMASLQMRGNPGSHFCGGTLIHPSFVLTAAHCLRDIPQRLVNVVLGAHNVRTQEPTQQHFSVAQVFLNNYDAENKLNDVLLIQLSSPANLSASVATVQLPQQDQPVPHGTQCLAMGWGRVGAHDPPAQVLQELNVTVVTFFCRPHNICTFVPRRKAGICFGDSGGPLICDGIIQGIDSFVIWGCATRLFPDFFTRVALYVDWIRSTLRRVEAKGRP

[3] = biological target: T1, Neutrophil elastase (Homo sapiens); experiment: Inhibition of human NE using MeOSuc-AAPV-AMC as substrate at 6 uM after 30 mins by fluorescence assay
[4] = biological target: T3, Myeloblastin (Homo sapiens) (UniProt P24158); experiment: Inhibition of human PR3 using N-EY-FRET as substrate at 6 uM after 20 mins by fluorescence assay
T3 sequence (whole entry): T2 sequence (P24158 whole entry)

SMILES	inhibition [1]	IC50 [2] [µM]	inhibition [3] [%]	inhibition [4] [%]
CCC[C@H](NC(=O)[C@H](CO)NC(=O)[C@H](C)NC(=O)[C@@H](NC(=O)c1ccccc1N)C(C)C)C(=O)C[C@@H](C)C(=O)N[C@@H](CCC(=O)O)C(=O)N[C@@H](CCCNC(=N)N)C(=O)N[C@@H](CCC(N)=O)C(=O)NCCNc1ccc([N+](=O)[O-])cc1[N+](=O)[O-] (H-[2Abz]VAS[X1]ERQ-EDDnp)	inactive			
O=S(=O)(F)Cc1ccccc1 [PHENYLMETHYLSULFONYLFLUORIDE]		19.2	20	20
